# According to the NIST ThermoML archive (doi:10.1016/j.jct.2010.04.006):
# ± gives the expanded uncertainty stated by the source.
# Columns and labels:
# [1] = Molar enthalpy of transition or fusion; conditions: Crystal; DSC
# [2] = Crystal; DTA
smiles,measurement,setting,value
O=C1Cc2ccccc2N1 [indolin-2-one],Molar enthalpy of transition or fusion,[1],4.48 ± 0.136 kcal/mol
same,Normal melting temperature,[2],125.71 ± 0.5 °C
